Consider 15 compounds from US9463188B2, “Osteopontin production inhibitor containing dictyopyrone derivative or dihydrodictyopyrone derivative as active ingredient” (TOHOKU UNIVERSITY, priority 2013, dated 2016).

Structures are written as SMILES.

Assay [1] relates to human OPN promoter (pOPN1-luc) in A549/OPNluc cells. The experiment in a line: Luciferase assay: luciferase expression under control of OPN promoter. The settings on record: for EC50 value relative to respective IC50 value: EC50 luciferase assay vs IC50 WST assay; for EC50: Homo sapiens, 48±4 hours, read-out: EC50 (concentration for 50% inhibition of luciferase expression under control of OPN promoter). The assay is classed as cell-based. An excerpt: (§1) A reporter vector pOPN1-luc obtained by inserting a human OPN promoter sequence (−765 to 23) into the multiple cloning site of pGL-3 basic vector (Promega) expresses luciferase when transfected into animal cells. This pOPN1-luc was transfected into a human non-small cell lung cancer-derived cell line A549 together with pPUR (Clontech) that expresses a puromycin resistance gene (puromycin-N-acetyl-transferase gene), and cells that could grow in a puromycin-supplemented medium and expressed luciferase were selected. The selected cells were named A549/OPNluc cells and used for observation of luciferase expression inhibitory effect under control of OPN promoter, as described later.
(§2) A test compound was added to a culture liquid containing A549/OPNluc cells to observe its influence on the amount of luciferase expressed in the cells. Here, it can be considered that when the test compound has cytotoxity or cell growth-suppressing effect, the total expression level of luciferase is reduced due to a reduction in the number of living cells that depends on the concentration of the test compound, and therefore the luciferase expression inhibitory effect of the test compound under control of OPN promoter cannot be properly evaluated. For this reason, WST assay for quantification of cell proliferation ability or cell viability by colorimetric measurement was first performed to determine IC50 (concentration for 50% inhibition of cell growth) of the test compound for cell growth. Then, luciferase activity measurement was performed to determine EC50 (concentration for 50% inhibition of luciferase expression) of the test compound for luciferase expression under control of OPN promoter.
The same steps as in the above-described WST assay were performed in which only DMSO (control) or the diluted test compound (sample) solution was added in an amount of 0.5 μL to each well containing the cell suspension to achieve 200-fold dilution, and the solution in each well was mixed with a vortex mixer, and the 96-well plate was incubated in a CO2 incubator (at 37° C. and 5% CO2) for 48±4 hours.
A luciferase reagent was prepared by dissolving Luciferase Assay Substrate (hereinafter, referred to as “LAS”) supplied in Luciferase Assay Systems (Promega: Cat# E1500) with Luciferase Assay Buffer (LAB). 5× Cell Culture Lysis Reagent (hereinafter, referred to as “CCLR”) was diluted with water 5-fold to prepare 1×CCLR.
After the incubation for 48±4 hours, the medium in each well was completely removed, and 50 μL of 1×CCLR was dispensed into each well. The 96-well plate was allowed to stand at room temperature for 30 minutes, and then 1×CCLR in each well was used as an assay sample. The luciferase reagent of 100 μL was placed in a tube for chemiluminescence measurement, and 20 μL of the assay sample was added to the tube and mixed with the luciferase reagent to measure chemiluminescence (Relative Luminescence Intensity: RLU) using Tuner Design Luminometer 20/20 (Promega).
The RLU values of the control wells and the RLU values of the sample wells at each concentration were input into an Excel file, and the percentages of RLU values of the sample wells at each concentration with respect to the average of RLU values of the control wells were determined. From these values, a fitted curve was determined by the method of least squares to calculate EC50.

In the next assay the test system is A549/OPNluc cells. The experiment in a line: WST assay (cell growth inhibition). Conditions: Homo sapiens, 48±4 hours, WST-1, read-out: IC50 (concentration for 50% inhibition of cell growth). In kind it is cell-based.
Text: as §1, §2
A549/OPNluc cells were suspended in DMEM medium containing 10% fetal calf serum (FCS) and 1% penicillin/streptomycin (P/S) at 3×10^4 cells/mL to obtain a cell suspension, and 100 μL of the cell suspension was dispensed into each well of a 96-well plate. In order to perform the assay in triplicate, 3 wells were prepared for a control group and 3 wells were prepared for each test compound-treated group at each concentration. After the dispensing, the 96-well plate was incubated in a CO2 incubator (at 37° C. and 5% CO2) for 24±4 hours.
The test compound was dissolved in dimethylsulfoxide (DMSO) to obtain a 50 mmol/L solution, and the test compound solution was stored at −80° C. The test compound solution was diluted with DMSO in 2-fold dilution series (usually, in the range of 0.31 mmol/L to 20 mmol/L) to prepare test compound solutions whose concentration varied by two fold for WST assay.
Only DMSO (control) or the diluted test compound (sample) solution was dispensed in an amount of 0.5 μL into each well containing the cell suspension (200-fold dilution). The solution in each well was mixed with a vortex mixer, and then the 96-well plate was incubated in a CO2 incubator (at 37° C. and 5% CO2) for 48±4 hours. Then, 10 μL of Premix WST-1 Reagent (TAKARA BIO INC.) was added to each well. The solution in each well was mixed with a vortex mixer, and then the 96-well plate was incubated at 37° C. and 5% CO2. After 60 minutes or 120 minutes, absorbance values (450 nm) were measured using a microplate reader (Bio-Rad; Benchmark or Thermo Scientific; Varioskan Flash).
The absorbance values of the control wells and the absorbance values of the sample wells at each concentration were input into an Excel file to determine the percentages of absorbance values of the sample wells at each concentration with respect to the average of absorbance values of the control wells. From the determined values, a fitted curve was determined by the method of least squares to calculate IC50.
(Tetrazolium dyes change colour on reduction, which living cells bring about.)

On to `CCCCCCCCCCCC(=O)C1=C(C)CC(C)(C)OC1=O` [Chemical formula 1], for which, in assay [1], the “EC50 value relative to respective IC50 value” was “½” and the EC50 was 24.4 µM. In addition, the IC50 with A549/OPNluc cells amounted to 129 µM.
On the same counts, the results for `CCCCCCCCCCCC(=O)C1=C(C)C[C@H](C)NC1=O` [Chemical formula 2] are “½”, 29.5 µM and 59.1 µM.
Regarding `CCCCCCCCCCCC(=O)[C@@H]1C(=O)N[C@@H](C)C[C@H]1C` [Chemical formula 4], in assay [1], the “EC50 value relative to respective IC50 value” was “½” and the EC50 stood at 19.7 µM. For the same compound, the IC50 with A549/OPNluc cells stood at 42.5 µM.
Turning to `CCCCCCCCCCCC(=O)C1=C(C)C[C@H](C)OC1=O` [Chemical formula 5], in assay [1], the EC50 stood at 63 µM. For the same compound, in the assay with A549/OPNluc cells, the IC50 came to 129 µM.
Take `CCCC(=O)C1=C(C)C[C@H](C)OC1=O` [Chemical formula 6]: the EC50 in assay [1] was above 100 µM. The IC50 in the assay with A549/OPNluc cells was above 100 µM.
With `CCCCCCCC(=O)C1=C(C)C[C@H](C)OC1=O` [Chemical formula 7], the EC50 in assay [1] was above 100 µM. For the same compound, in the assay on A549/OPNluc cells, the IC50 is above 100 µM.
Turning to `CCCCCCCCCCCC(=O)C1=C(C)C[C@@H](C)OC1=O` [Chemical formula 8], in assay [1], the “EC50 value relative to respective IC50 value” is reported as “½” and the EC50 amounted to 55 µM. In addition, the IC50 in the assay on A549/OPNluc cells was found to be 111 µM.
Turning to `COC(=O)CCCCCCC(=O)C1=C(C)C[C@H](C)OC1=O` [Chemical formula 9, methyl (S)-8-(4,6-dimethyl-2-oxo-5,6-dihydro-2H-pyran-3-yl)-8-Oxooctanoate], the EC50 in assay [1] was above 100 µM. The IC50 with A549/OPNluc cells was above 100 µM.
Take `CCCC(=O)C1=C(C)C[C@H](C)NC1=O` [Chemical formula 10, (S)-3-butanoyl-5,6-dihydro-4,6-dimethyl-1H-pyridin-2-one]: the EC50 in assay [1] came out at 63 µM. Further, the IC50 in the assay with A549/OPNluc cells was 110 µM.
`CCCCCCCC(=O)C1=C(C)C[C@H](C)NC1=O` [Chemical formula 11, (S)-5,6-dihydro-4,6-dimethyl-3-octanoyl-1H-pyridin-2-one]: the EC50 in assay [1] was above 100 µM. Also, in the assay with A549/OPNluc cells, the IC50 was above 100 µM.
For `CCCCCCCCCCCC(=O)[C@@H]1C(=O)O[C@@H](C)C[C@H]1C` [Chemical formula 12], in assay [1], the EC50 was above 50 µM. Further, the IC50 in the assay on A549/OPNluc cells is above 50 µM.
Turning to `CCCCCCCCCCCC(=O)[C@H]1C(=O)O[C@H](C)C[C@@H]1C` [Chemical formula 13], the EC50 in assay [1] was above 50 µM. Besides, the IC50 in the assay on A549/OPNluc cells was above 50 µM.
Consider `CCCCCCCCCCCC(=O)[C@H]1C(=O)OC(C)(C)C[C@@H]1C` [Chemical formula 14], for which the EC50 in assay [1] worked out at 29.5 µM. For the same compound, the IC50 in the assay with A549/OPNluc cells was determined as 54.1 µM.
On to `CCCCCCCCCCCC(O)[C@H]1C(=O)O[C@@H](C)C[C@@H]1C` (stereo partly drawn) [Chemical formula 15], for which, in assay [1], the “EC50 value relative to respective IC50 value” is recorded as “½” and the EC50 was 43.4 µM. Further, the IC50 in the assay with A549/OPNluc cells was 88 µM.
On the same counts, the results for `CCCCCCCCCCC/C(OC(C)=O)=C1\C(=O)O[C@@H](C)C[C@@H]1C` [Chemical formula 16] are “½”, 31.1 µM and above 100 µM.
